Our source for the GI50 and IC50 values is patent US20260138959A1, “QUINAZOLINE DERIVATIVE COMPOUND AND USE THEREOF” (VORONOI INC., priority 2021, published 2026).

For orientation: IC50 means the concentration that inhibits the measured activity by half.

One assay deals with c-KIT V560G/D816V. The assay can be described thus: Proliferation inhibitory activity on Ba/F3 cell (CellTiter-Glo, 72 hours), c-KIT V560G/D816V. Type of assay: cell-based. The following applies: Mus musculus, BaF3, c-KIT V560G/D816V cells, read-out: Cell (nM) c-KIT V560G/D816V (GI50 class). The gist of the method: (§1)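 Viability was read by CellTiter-Glo after 72 h compound exposure at 37 °C, and GI50 values (nM) were derived from percent of vehicle-treated growth. Ba/F3 cells transformed with TEL-PDGFRα/β or mutant c-KIT were plated at 3×10^3 per well. Final compound range was 0.00005-10 μM in 12 threefold steps.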

A further assay addresses T1, human PDGFR-β(wt) (Homo sapiens, UniProt P09619).
T1 construct: purchased Signalchem P13-11G
The assay can be described thus: Enzyme inhibitory activity, ADP-Glo kinase assay, PDGFR-β(wt). Type of assay: biochemical. The note with it: read-out: PDGFR-β (IC50 class). How it is done:
(§2) In order to evaluate the inhibitory activity of the compounds synthesized according to the above examples on PDGFR-α(wt), PDGFR-β(wt), c-KIT(wt), and c-KIT(D816V) kinases, the following method was performed. The compounds of examples were reacted with purified human PDGFR-α(wt) (Signalchem #P12-18G) enzyme, human PDGFR-β(wt) (Signalchem #P13-11G) enzyme, human c-KIT(wt) (Signalchem #K06-11BG) enzyme, human c-KIT(D816V) (Signalchem #C06-12LG) enzyme, and the enzyme inhibitory abilities were evaluated by the following method.
(§3) The reaction buffer was used as a composition of 40 mM Tris-HCl pH7.4, 20 mM MgCl2, 0.5 mg/ml BSA, 50 μM DTT, and the reactions of all the tests were carried out on the reaction buffer. The compound was diluted in 12 steps using a serial dilution method from a 10 mM DMSO stock, and the enzyme activity was measured at a final compound concentration of 10˜0.00005645 μM. During the test, the enzyme activity was confirmed using in vitro ADP-Glo™ kinase assay (Promega) after reacting with the proper concentration of human PDGFR-α(wt) enzyme, human PDGFR-β(wt), human c-KIT(wt) enzyme, and human c-KIT(D816V) enzyme with purified ATP and enzyme substrate at 25° C. for 1˜2 hours. At a ratio of 2:2:1, an enzyme-active reaction solution, an ADP-Glo reaction solution, and an enzyme-active detection solution were reacted to measure the inhibition of the enzyme's activity with luminoscence. Based on the […] of the enzyme activity of the solvent control that was not treated with the compound, the degree of enzyme activity inhibition was calculated according to the treatment concentration of each compound, and the concentration of each compound that inhibits 50% of enzyme activity was determined as IC50 (nM) value and the value was obtained by using GraphPad Prism 8.3.0 (GraphPad software Inc., San Diego) software. (A: IC50≤50 nM; B: 50 nM<IC50≤100 nM; C: 100 nM<IC50≤500 nM; D: IC50>500 nM).
A general note: ADP-Glo first removes unused ATP, then detects ADP through luciferase.

The test system of another assay is Ba/F3-TEL-PDGFβ(WT). The assay can be described thus: Proliferation inhibitory activity on Ba/F3 cell (CellTiter-Glo, 72 hours), PDGFR-β. Type of assay: cell-based. The note with it: Mus musculus, BaF3, read-out: Ba/F3 (nM) Tel-PDGFRβ (GI50 class). As for the experimental part:
(§4) Ba/F3-TEL-PDGFRα(WT), Ba/F3-TEL-PDGFβ(WT), Ba/F3-c-KIT(D816V) (Kyinno, #KC-0138), c-KIT V560G/D816V, c-KIT D814Y were seeded at 3×10^3/100 μl/well in a clear bottom white 96-well plate. A culture solution containing compounds of 12 concentrations (0.00001-2 mM) serially diluted in 3 folds and the DMSO control group was added at 0.5 μl/well each to a final concentration of 0.00005-10 μM, and then incubated in a CO2 incubator at 37° C. for 72 hours. After 72 hours, the plate treated with the compound was taken out, CellTiter-Glo® Assay (Promega) solution was treated with 100 μl/well, followed by mixing well. After mixing well for about 10 minutes at room temperature, […] was measured using a microplate reader. The data were presented as percentages in proportion to treated cells based on the vehicle, GI50 (nM) values were calculated using GraphPad Prism 8.3.0 (GraphPad software Inc., San Diego).
(§5) The inhibitory activities of Ba/F3 expressing PDGFR-α, PDGFR-β, c-KIT(D816V), c-KIT V560G/D816V, and c-KIT D814Y measured as described above were measured and shown in Table 7 below (A: GI50≤200 nM; B: 200 nM<GI50≤500 nM; C: GI50>500 nM).

For the next assay, the system named is Ba/F3-TEL-PDGFRα(WT). The assay can be described thus: Proliferation inhibitory activity on Ba/F3 cell (CellTiter-Glo, 72 hours), PDGFR-α. Type of assay: cell-based. The note with it: Mus musculus, BaF3, read-out: Ba/F3 (nM) Tel-PDGFRα (GI50 class). As for the experimental part: as §4, §5
A general note: ATP-based viability assays read luminescence as a measure of living cells.

In a further assay the target is T2, human PDGFR-α(wt) (Homo sapiens, UniProt P16234).
T2 construct: purchased Signalchem P12-18G
In words: Enzyme inhibitory activity, ADP-Glo kinase assay, PDGFR-α(wt). Type of assay: biochemical. The note with it: read-out: PDGFR-α (IC50 class). As for the experimental part:
as §2, §3

In another assay the test system is Ba/F3-c-KIT(D816V). The assay can be described thus: Proliferation inhibitory activity on Ba/F3 cell (CellTiter-Glo, 72 hours), c-KIT(D816V). Type of assay: cell-based. The following applies: Mus musculus, BaF3, read-out: Ba/F3 (nM) c-KIT (D816V) (GI50 class). In outline: as §1

T1 sequence (P09619 33-1106): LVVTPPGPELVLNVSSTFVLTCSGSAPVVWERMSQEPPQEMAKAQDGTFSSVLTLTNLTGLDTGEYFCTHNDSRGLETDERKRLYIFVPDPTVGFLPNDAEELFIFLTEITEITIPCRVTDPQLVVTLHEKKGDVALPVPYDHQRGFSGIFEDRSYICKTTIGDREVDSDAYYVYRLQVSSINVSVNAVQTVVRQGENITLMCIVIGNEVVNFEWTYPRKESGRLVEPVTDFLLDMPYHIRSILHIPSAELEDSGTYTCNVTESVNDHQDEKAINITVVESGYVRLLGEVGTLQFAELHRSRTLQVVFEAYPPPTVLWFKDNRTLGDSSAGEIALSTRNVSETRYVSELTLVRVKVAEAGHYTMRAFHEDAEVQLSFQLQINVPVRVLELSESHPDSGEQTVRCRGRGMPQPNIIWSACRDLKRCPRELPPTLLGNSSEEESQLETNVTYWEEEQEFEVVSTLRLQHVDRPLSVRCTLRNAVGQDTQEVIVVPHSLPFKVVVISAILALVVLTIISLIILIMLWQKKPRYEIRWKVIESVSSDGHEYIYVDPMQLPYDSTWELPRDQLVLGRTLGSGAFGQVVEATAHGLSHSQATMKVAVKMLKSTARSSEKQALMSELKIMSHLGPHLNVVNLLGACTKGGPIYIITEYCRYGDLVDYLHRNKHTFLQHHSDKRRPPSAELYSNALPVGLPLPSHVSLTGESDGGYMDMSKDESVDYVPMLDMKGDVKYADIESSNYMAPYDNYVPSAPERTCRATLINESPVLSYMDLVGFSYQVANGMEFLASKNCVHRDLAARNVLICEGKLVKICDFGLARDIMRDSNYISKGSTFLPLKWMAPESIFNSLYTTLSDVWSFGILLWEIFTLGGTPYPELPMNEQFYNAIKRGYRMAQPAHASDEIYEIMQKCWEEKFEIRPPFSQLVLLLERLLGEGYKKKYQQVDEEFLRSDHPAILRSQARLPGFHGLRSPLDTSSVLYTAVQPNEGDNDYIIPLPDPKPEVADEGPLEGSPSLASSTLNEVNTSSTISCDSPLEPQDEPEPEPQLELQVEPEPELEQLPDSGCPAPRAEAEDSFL
T2 sequence (P16234 24-1089): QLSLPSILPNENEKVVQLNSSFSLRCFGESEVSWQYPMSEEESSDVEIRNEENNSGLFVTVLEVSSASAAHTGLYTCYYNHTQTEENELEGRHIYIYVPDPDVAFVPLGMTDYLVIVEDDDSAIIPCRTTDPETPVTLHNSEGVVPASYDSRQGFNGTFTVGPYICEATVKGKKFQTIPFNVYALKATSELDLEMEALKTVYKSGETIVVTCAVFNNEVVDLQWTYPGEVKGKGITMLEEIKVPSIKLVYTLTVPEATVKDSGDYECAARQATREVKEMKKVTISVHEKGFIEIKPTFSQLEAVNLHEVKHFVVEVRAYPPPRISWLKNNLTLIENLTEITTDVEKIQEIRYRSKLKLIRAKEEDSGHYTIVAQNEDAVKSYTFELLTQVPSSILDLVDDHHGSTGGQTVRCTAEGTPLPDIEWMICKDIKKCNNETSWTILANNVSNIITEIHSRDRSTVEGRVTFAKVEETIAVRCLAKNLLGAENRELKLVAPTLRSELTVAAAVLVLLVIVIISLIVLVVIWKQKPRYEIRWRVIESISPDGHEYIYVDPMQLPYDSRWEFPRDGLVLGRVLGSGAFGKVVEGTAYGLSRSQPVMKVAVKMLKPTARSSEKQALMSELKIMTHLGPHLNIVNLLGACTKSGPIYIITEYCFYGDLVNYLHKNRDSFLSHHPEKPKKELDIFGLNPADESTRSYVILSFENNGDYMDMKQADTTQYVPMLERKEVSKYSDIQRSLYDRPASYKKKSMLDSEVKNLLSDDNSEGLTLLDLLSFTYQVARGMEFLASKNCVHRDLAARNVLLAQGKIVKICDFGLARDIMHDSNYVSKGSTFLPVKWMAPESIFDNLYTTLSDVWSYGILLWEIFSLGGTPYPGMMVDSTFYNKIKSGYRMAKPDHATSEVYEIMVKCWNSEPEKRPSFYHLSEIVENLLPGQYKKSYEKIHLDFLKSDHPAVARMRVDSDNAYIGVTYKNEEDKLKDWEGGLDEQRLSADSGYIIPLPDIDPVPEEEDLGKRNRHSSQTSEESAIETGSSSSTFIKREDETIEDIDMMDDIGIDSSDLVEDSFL

For `COCCN1CCC(COc2cc3ncnc(-c4ccc(NC(=O)C(C)(C)c5ccc(F)cc5)cc4)c3cc2OC)CC1` [Example 89, 2-(4-fluorophenyl)-N-(4-(6-methoxy-7-((1-(2-methoxyethyl)piperidin-4-yl)methoxy)quinazolin-4-yl)phenyl)-2-methylpropanamide], the GI50 in the assay with c-KIT V560G/D816V, in the assay with Ba/F3-TEL-PDGFβ(WT) and in the assay with Ba/F3-TEL-PDGFRα(WT) was at most 200 nM each time. In addition, the IC50 on human PDGFR-β(wt) and at human PDGFR-α(wt) was at most 50 nM throughout.
For the compound `CCN1CCC(COc2cc3ncnc(-c4ccc(NC(=O)C(C)(C)c5ccc(F)cc5)cc4)c3cc2OC)CC1` [Example 90, N-(4-(7-((1-ethylpiperidin-4-yl)methoxy)-6-methoxyquinazolin-4-yl)phenyl)-2-(4-fluorophenyl)-2-methylpropanamide], the GI50 with c-KIT V560G/D816V, in the assay with Ba/F3-TEL-PDGFβ(WT) and in the assay on Ba/F3-TEL-PDGFRα(WT) was at most 200 nM throughout. Further, the IC50 at human PDGFR-β(wt) and on human PDGFR-α(wt) was at most 50 nM throughout.
As to `COCCN1CCC(COc2cc3ncnc(-c4ccc(NC(=O)Cc5ccc6c(c5)OCO6)cc4)c3cc2OC)CC1` [Example 98, 2-(benzo[d][1,3]dioxol-5-yl)-N-(4-(6-methoxy-7-((1-(2-methoxyethyl)piperidin-4-yl)methoxy)quinazolin-4-yl)phenyl)acetamide], the GI50 in the assay on c-KIT V560G/D816V and in the assay on Ba/F3-TEL-PDGFβ(WT) was at most 200 nM each time. For the same compound, on human PDGFR-β(wt), the IC50 was at most 50 nM.
Take `CCN1CCC(COc2cc3ncnc(-c4ccc(NC(=O)Cc5ccc6c(c5)OCO6)cc4)c3cc2OC)CC1` [Example 99, 2-(benzo[d][1,3]dioxol-5-yl)-N-(4-(7-((1-ethylpiperidin-4-yl)methoxy)-6-methoxyquinazolin-4-yl)phenyl)acetamide]: the GI50 in the assay on c-KIT V560G/D816V and in the assay on Ba/F3-TEL-PDGFβ(WT) was at most 200 nM throughout. Also, the IC50 at human PDGFR-β(wt) is at most 50 nM.
On to `COc1ccc(CC(=O)Nc2ccc(-c3ncnc4cc(OCC5CCN(C)CC5)c(OC)cc34)cc2)cn1` [Example 100, N-(4-(6-methoxy-7-((1-methylpiperidin-4-yl)methoxy)quinazolin-4-yl)phenyl)-2-(6-methoxypyridin-3-yl)acetamide], for which the GI50 in the assay on c-KIT V560G/D816V and with Ba/F3-TEL-PDGFβ(WT) was at most 200 nM throughout. Also, at human PDGFR-β(wt), the IC50 was at most 50 nM.
`CCN1CCCC(COc2cc3ncnc(-c4ccc(NC(=O)Cc5ccc(OC)nc5)cc4)c3cc2OC)C1` (stereo not drawn) [Example 109, N-(4-(7-((1-ethylpiperidin-3-yl)methoxy)-6-methoxyquinazolin-4-yl)phenyl)-2-(6-methoxypyridin-3-yl)acetamide]: the GI50 in the assay with c-KIT V560G/D816V and with Ba/F3-TEL-PDGFβ(WT) was at most 200 nM each time. The IC50 at human PDGFR-β(wt) is at most 50 nM.
For the compound `CCN1CCCC(COc2cc3ncnc(-c4ccc(NC(=O)Cc5ccc(C(F)(F)F)nc5)cc4)c3cc2OC)C1` (stereo not drawn) [Example 110, N-(4-(7-((1-ethylpiperidin-3-yl)methoxy)-6-methoxyquinazolin-4-yl)phenyl)-2-(6-(trifluoromethyl)pyridin-3-yl)acetamide], the GI50 in the assay with c-KIT V560G/D816V and in the assay with Ba/F3-TEL-PDGFβ(WT) was at most 200 nM in each case. Moreover, the IC50 at human PDGFR-β(wt) is at most 50 nM.
On to `COCCN1CCC(COc2cc3ncnc(-c4ccc(NC(=O)Cc5ccc(Cl)nc5)cc4)c3cc2OC)CC1` [Example 113, 2-(6-chloropyridin-3-yl)-N-(4-(6-methoxy-7-((1-(2-methoxyethyl)piperidin-4-yl)methoxy)quinazolin-4-yl)phenyl)acetamide], for which the GI50 with c-KIT V560G/D816V and with Ba/F3-TEL-PDGFβ(WT) was at most 200 nM each time. Moreover, the IC50 at human PDGFR-β(wt) is at most 50 nM.
On to `COc1ccc(CC(=O)Nc2ccc(-c3ncnc4cc(OCC5CCN(C(C)C)CC5)c(OC)cc34)cc2)cn1` [Example 116, N-(4-(7-((1-isopropylpiperidin-4-yl)methoxy)-6-methoxyquinazolin-4-yl)phenyl)-2-(6-methoxypyridin-3-yl)acetamide], for which the GI50 in the assay on c-KIT V560G/D816V and in the assay with Ba/F3-TEL-PDGFβ(WT) was at most 200 nM each time. Also, the IC50 on human PDGFR-β(wt) is at most 50 nM.
Turning to `COc1cc2c(-c3ccc(NC(=O)Cc4ccc(C(F)(F)F)nc4)cc3)ncnc2cc1OCC1CCN(C(C)C)CC1` [Example 121, N-(4-(7-((1-isopropylpiperidin-4-yl)methoxy)-6-methoxyquinazolin-4-yl)phenyl)-2-(6-(trifluoromethyl)pyridin-3-yl)acetamide], the GI50 in the assay with c-KIT V560G/D816V and with Ba/F3-TEL-PDGFβ(WT) was at most 200 nM each time. Moreover, the concentration for half-maximal inhibition (IC50) on human PDGFR-β(wt) is at most 50 nM.
Regarding `COc1cc2ncnc(-c3ccc(NC(=O)Cc4ccc(F)cc4)cc3)c2cc1O` [Example 124, 2-(4-fluorophenyl)-N-(4-(6-hydroxy-7-methoxyquinazolin-4-yl)phenyl)acetamide], the half-maximal inhibitory concentration (IC50) at human PDGFR-β(wt) is 100 to 500 nM; on human PDGFR-α(wt), at most 50 nM. Further, the GI50 in the assay with Ba/F3-TEL-PDGFβ(WT) and with Ba/F3-TEL-PDGFRα(WT) was at most 200 nM throughout.
Consider `COc1cc2c(-c3ccc(NC(=O)Cc4ccc(C(F)(F)F)cc4)cc3)ncnc2cc1OCCCN1CCN(C2CC2)CC1` [Example 142, N-(4-(7-(3-(4-cyclopropylpiperazin-1-yl)propoxy)-6-methoxyquinazolin-4-yl)phenyl)-2-(4-(trifluoromethyl)phenyl)acetamide], for which the GI50 with c-KIT V560G/D816V, in the assay on Ba/F3-TEL-PDGFβ(WT) and with Ba/F3-c-KIT(D816V) was at most 200 nM each time. In addition, at human PDGFR-β(wt), the IC50 is at most 50 nM.
As to `CCN1CCC(COc2cc3c(-c4ccc(NC(=O)Cc5ccc(C(F)(F)F)cc5)cc4)ncnc3cc2OC)CC1` [Example 147, N-(4-(6-((1-ethylpiperidin-4-yl)methoxy)-7-methoxyquinazolin-4-yl)phenyl)-2-(4-(trifluoromethyl)phenyl)acetamide], the half-inhibitory concentration (IC50) on human PDGFR-β(wt) and on human PDGFR-α(wt) was at most 50 nM each time. Besides, the GI50 in the assay on Ba/F3-TEL-PDGFβ(WT), in the assay with Ba/F3-c-KIT(D816V) and in the assay with Ba/F3-TEL-PDGFRα(WT) was at most 200 nM each time.
As for `CCN1CC2(C1)CN(CCCOc1cc3c(-c4ccc(NC(=O)Cc5ccc(C(F)(F)F)cc5)cc4)ncnc3cc1OC)C2` [Example 149], the IC50 on human PDGFR-β(wt) and on human PDGFR-α(wt) was at most 50 nM in each case. Moreover, the GI50 is at most 200 nM in the assay on Ba/F3-TEL-PDGFβ(WT), above 500 nM with Ba/F3-c-KIT(D816V) and at most 200 nM in the assay with Ba/F3-TEL-PDGFRα(WT).
For the compound `COc1cc2ncnc(-c3ccc(NC(=O)Cc4ccc(C(F)(F)F)cc4)cc3)c2cc1OCCCN1C[C@@H]2C[C@H]1CN2C` [Example 158, N-(4-(7-methoxy-6-(3-((1S,4S)-5-methyl-2,5-diazabicyclo[2.2.1]heptane-2-yl)propoxy)quinazolin-4-yl)phenyl)-2-(4-(trifluoromethyl)phenyl)acetamide], the GI50 with c-KIT V560G/D816V is 200 to 500 nM; with Ba/F3-TEL-PDGFβ(WT), at most 200 nM; in the assay with Ba/F3-c-KIT(D816V), at most 200 nM. The IC50 on human PDGFR-β(wt) is at most 50 nM.
For `COc1cc2ncnc(-c3ccc(NC(=O)Cc4ccc(C(F)(F)F)cc4)cc3)c2cc1OCCCN1CCN2CCCC2C1` (stereo not drawn) [Example 161, N-(4-(6-(3-(hexahydropyrrolo[1,2-a]pyrazin-2(1H)-yl)propoxy)-7-methoxyquinazolin-4-yl)phenyl)-2-(4-(trifluoromethyl)phenyl)acetamide], the GI50 in the assay on c-KIT V560G/D816V, in the assay with Ba/F3-TEL-PDGFβ(WT) and in the assay with Ba/F3-c-KIT(D816V) was at most 200 nM each time. In addition, the IC50 on human PDGFR-β(wt) is at most 50 nM.
